The record followed here is patent US20240261274A1, “TREATMENT OF MYC-DRIVEN CANCERS WITH GSPT1 DEGRADERS” (MONTE ROSA THERAPEUTICS, INC., priority 2021, published 2024).

For one series, the system named is c-Myc. Put plainly: c-Myc levels in multiple myeloma and lymphoma cell lines after Compound 345 (western blot). As to conditions: 24 hr post treatment. Format: cell-based. The text has this:
(§1) FIGS. 16A, 16B and 16C: Activity of Compound 345 in the c-Myc high multiple myeloma MM1S cell line. […] GAPDH was used as a loading control. […] Lenalidomide was used as a benchmark. 16C: Antiproliferative activity of Compound 345 (as indicated) following treatment with Compound 345 for 72 hr as assessed by Cell Titer Glo assay.
(§2) FIGS. 18A, 18B and 18C: Activity of Compound 345 in the c-Myc high WSU-DLCL2 lymphoma cell line. […] GAPDH was used as a loading control. 18B: Antiproliferative activity of Compound 345 (as indicated) following treatment with Compound 345 for 72 hr as assessed by Cell Titer Glo assay. […] Mice were dosed daily PO with vehicle or Compound 345 at 3, 10 mg/kg (as indicated). Tumor volumes were measured twice weekly. X-axis represents the number of days for treatment duration; y-axis represents mean tumor volume (in mm^3)±SEM. CHOP was used as a positive control for this model. Drug-free vehicle is represented by black circles; CHOP combination represented by light squares; Compound 345 3 mg/kg represented by triangles; Compound 345 10 mg/kg represented by dark squares.
(§3) FIGS. 19A, 19B, and 19C: Activity of Compound 345 in the c-Myc high DOHH-2 lymphoma cell line. […] GAPDH was used as a loading control. 19B: Antiproliferative activity of Compound 345 (as indicated) following treatment with Compound 345 for 72 hr as assessed by Cell Titer Glo assay. […] Mice were dosed daily PO with vehicle or Compound 345 at 3, 10 mg/kg (as indicated). Tumor volumes were measured twice weekly. X-axis represents the number of days for treatment duration; y-axis represents mean tumor volume (in mm^3)±SEM. CHOP was used as a positive control for this model.
(§4) Western blot analysis performed 24 hr post treatment initiation. GAPDH was used as a loading control. GSPT1 DC50 and Dmax as indicated.

A further series has as its target GSPT1 (Homo sapiens, UniProt P15170+Q96SW2). Kind of series: GSPT1 degradation by Compound 345 in cancer cell lines (western blot). Format: cell-based. Set-up: endogenous in cells; host or cells: MM1 S (ATCC CRL-2974). On the procedure:
NCI-H1155 and ABC-1 were taken as representative of N-Myc positive NSCLC. NCI-H2023 and NCI-H441 as of N-Myc low representatives. 10A: western blotting analysis performed after 6 (NCI-H1155 and ABC-1) or 24 hr (NCI-H2023 and NCI-H441) posttreatment. […] 10B: corresponding densitometry analyses of GSPT1 normalized to GAPDH. DC50 and Dmax as indicated.
NCI-H1155 and ABC-1 were taken as representative of N-Myc high NSCLC. NCI-H2023 and NCI-H441 as of N-Myc low representatives. Left: densitometry analysis of GSPT1 normalized to GAPDH from western blotting following treatment with Compound 345 (as indicated). Right: 72 hr viability assay following treatment with Compound 345 as assessed by Cell Titer Glo. For both the GSPT1 expression plot and the cell viability plot, two Myc-driven cancer cell lines are represented by upright triangles and diamonds. Two non-Myc-driven cancer cell lines are represented by upside down triangles and circles.
NCI-H1155 and NCI-H2023 were taken as representative of N-Myc high and low NSCLC. 12A: western blot analysis probing for GSPT1 and N-Myc following treatment with Compound 345 (as indicated). Tubulin was used as a loading control. N-Myc could not be detected by western blotting in the NCI-H2023 line. 12B: Single-sample gene set enrichment analysis (ssGSEA) results for a Myc target gene set at 6 hours (left) and 24 hours (right) after treatment. ssGSEA scores were normalized to DMSOs for each cell line and averaged for three replicates. Error bars denote+/−1 s.d. across replicates.
NCI-H1836 and NCI-H1876 were taken as two representatives of L-Myc high SCLC. Western blot analysis probing for GSPT1 and L-Myc following treatment with Compound 345 as indicated. GAPDH was used as a loading control.
as §1, §2, §3, §4

Series [1] deals with human cell line NCI-H1770 xenograft. Put plainly: N-Myc-driven mouse xenograft model, NCI-H1770, compound 210 oral. Format: in vivo.
For series [2], the system named is NCI-H1155 xenograft (human non small cell lung cancer). Kind of series: NCI-H1155 xenograft efficacy study (compound 210). The series is classed as in vivo, BALB/c nude mice. On the procedure: For the NCI-H1155 xenograft study, cells (human non small cell lung cancer, ATCC CRL-5818) were maintained in vitro as suspension culture in ATCC-formulated DMEM:F12 Medium supplemented as recommended by the provider and kept at 37° C. in an atmosphere of 5% CO2 in air. Cells (0.5 million) were resuspended in 0.2 mL of PBS with Matrigel (50:50) and inoculated into female BALB/c nude mice, 6-8 weeks old, and allowed to grow to 150 mm^3 in size. Mice were dosed orally with either vehicle or compound 210 at 1 or 3 mg per kilogram daily (filled squares and filled triangles, respectively) or 6 mg per kilogram for 5 continuous days followed by 9 days treatment holidays (5 On-9 off) (filled inverted triangles). Compound formulations were prepared fresh daily in 5% vDMSO/95% (30% w/v HP-β-CD in water). Gemcitabine dosed at 40 mg per kilogram, IP, Q4D×5 was used as a positive control (filled rhombi). For this study, mice were dosed for 21 days with tumor volumes measured every 3 days.

Sequence of GSPT1 (P15170 whole entry): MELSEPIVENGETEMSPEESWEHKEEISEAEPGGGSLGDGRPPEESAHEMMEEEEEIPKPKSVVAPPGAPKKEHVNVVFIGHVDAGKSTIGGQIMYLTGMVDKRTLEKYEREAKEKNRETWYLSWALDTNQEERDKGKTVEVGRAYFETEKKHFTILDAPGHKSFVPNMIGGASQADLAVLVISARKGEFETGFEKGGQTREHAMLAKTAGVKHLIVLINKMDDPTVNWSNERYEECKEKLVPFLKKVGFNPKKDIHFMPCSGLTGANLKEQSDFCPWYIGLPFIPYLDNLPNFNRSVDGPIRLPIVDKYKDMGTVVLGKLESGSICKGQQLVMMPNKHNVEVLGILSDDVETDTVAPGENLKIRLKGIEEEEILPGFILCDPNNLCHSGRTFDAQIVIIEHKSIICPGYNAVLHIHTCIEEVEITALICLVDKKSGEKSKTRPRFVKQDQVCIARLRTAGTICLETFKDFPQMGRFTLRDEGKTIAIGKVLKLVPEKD
Sequence of GSPT1 (Q96SW2 whole entry): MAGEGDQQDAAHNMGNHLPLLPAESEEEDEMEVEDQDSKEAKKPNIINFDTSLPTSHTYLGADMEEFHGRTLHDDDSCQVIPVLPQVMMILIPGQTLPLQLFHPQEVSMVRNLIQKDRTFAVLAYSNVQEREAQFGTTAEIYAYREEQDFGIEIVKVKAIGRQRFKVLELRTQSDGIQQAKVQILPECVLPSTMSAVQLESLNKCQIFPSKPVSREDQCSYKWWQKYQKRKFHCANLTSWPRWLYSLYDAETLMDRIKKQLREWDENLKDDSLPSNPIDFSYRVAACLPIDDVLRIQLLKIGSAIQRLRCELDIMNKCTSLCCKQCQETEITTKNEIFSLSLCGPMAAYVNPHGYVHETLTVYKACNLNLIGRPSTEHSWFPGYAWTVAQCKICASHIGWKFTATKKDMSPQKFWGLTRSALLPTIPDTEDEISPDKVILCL
Sequence of GSPT1 (Q16531 whole entry partner): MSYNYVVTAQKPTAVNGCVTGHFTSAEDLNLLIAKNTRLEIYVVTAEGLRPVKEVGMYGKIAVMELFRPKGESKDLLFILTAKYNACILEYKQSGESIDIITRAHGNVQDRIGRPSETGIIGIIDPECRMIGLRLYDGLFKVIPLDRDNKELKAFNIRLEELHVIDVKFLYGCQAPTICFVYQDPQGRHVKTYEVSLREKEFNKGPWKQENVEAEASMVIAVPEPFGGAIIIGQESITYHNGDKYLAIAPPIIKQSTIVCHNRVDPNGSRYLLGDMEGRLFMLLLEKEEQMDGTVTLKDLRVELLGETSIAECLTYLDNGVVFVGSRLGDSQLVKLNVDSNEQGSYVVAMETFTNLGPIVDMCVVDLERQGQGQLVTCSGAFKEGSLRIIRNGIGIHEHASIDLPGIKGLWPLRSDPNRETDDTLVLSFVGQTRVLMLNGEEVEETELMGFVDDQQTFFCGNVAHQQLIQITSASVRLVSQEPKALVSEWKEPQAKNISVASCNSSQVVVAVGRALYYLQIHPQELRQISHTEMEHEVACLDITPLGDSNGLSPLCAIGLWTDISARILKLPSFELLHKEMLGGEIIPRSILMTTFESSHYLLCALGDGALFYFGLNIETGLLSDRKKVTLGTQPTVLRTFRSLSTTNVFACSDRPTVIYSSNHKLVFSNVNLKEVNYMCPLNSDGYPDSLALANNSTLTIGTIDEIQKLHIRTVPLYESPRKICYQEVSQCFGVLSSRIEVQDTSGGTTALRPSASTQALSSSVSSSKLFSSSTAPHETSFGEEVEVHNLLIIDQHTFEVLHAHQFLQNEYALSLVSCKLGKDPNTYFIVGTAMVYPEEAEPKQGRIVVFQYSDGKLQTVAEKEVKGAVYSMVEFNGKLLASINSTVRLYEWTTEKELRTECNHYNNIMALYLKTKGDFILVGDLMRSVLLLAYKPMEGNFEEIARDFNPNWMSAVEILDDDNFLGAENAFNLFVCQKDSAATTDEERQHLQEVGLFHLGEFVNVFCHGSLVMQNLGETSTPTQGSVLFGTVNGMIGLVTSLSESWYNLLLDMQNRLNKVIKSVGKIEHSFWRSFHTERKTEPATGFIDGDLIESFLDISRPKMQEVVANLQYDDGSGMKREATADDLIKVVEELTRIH

For the molecule `O=C1CCC(N2Cc3ccc(COC(=O)Nc4cc(OC(F)(F)F)ccc4F)cc3C2=O)C(=O)N1` (centres unmarked) [Compound 345, (2-(2,6-dioxopiperidin-3-yl)-3-oxoisoindolin-5-yl)methyl(2-fluoro-5-(trifluoromethoxy)phenyl)carbamate], the c-Myc level result in the series with c-Myc (DOHH-2 lymphoma cell line), with c-Myc (MM1S multiple myeloma cell line) and with c-Myc (WSU-DLCL2 lymphoma cell line) was “downregulation of c-Myc” throughout. In addition, the GSPT1 level entry at GSPT1 (DOHH-2 lymphoma cell line, 24 hr post treatment) is given as “Degradation of GSPT1”; on GSPT1 (MM1S multiple myeloma cell line, 24 hr post treatment) it was “Degradation of GSPT1”; at GSPT1 (NSCLC lines NCI-H1155, ABC-1 (6 hr), NCI-H2023, NCI-H441 (24 hr)), “Induced-degradation of GSPT1”; on GSPT1 (WSU-DLCL2 lymphoma cell line, 24 hr post treatment) it was “Degradation of GSPT1”. The “GSPT1 level, timecourse” value is “degradation of GSPT1” on GSPT1 (NSCLC lines NCI-H1155 and NCI-H2023); “degradation of GSPT1” on GSPT1 (SCLC lines NCI-H1836 and NCI-H1876 (L-Myc high)).
With `Cc1ccc(NC(=O)OCc2ccc3c(c2)C(=O)N(C2CCC(=O)NC2=O)C3)cc1Cl` (centres unmarked) [Compound 210], the tumor size result was “tumor size decreased and remained so until the end of the study” in series [1] (3 mg/kg once daily); “tumor size decreased and remained so until the end of the study” in series [1] (6 mg/kg, five days on and nine days off); “tumor size decreased, became undetectable by day eight” in series [2] (oral, 3 mg/kg once daily); “tumor size decreased, became undetectable by day eight” in series [2] (oral, 6 mg/kg five days on and nine days off). In addition, the body weight entry was “no body weight loss observed” in series [1] (oral administration) and “no body weight loss observed” in series [2] (oral administration, NCI-H1155 xenograft mice). Also, the tumor growth result in series [1] (oral administration) is reported as “tumor growth inhibition”; in series [2] (oral, 1 mg/kg once daily) it was “tumor growth was suppressed for two weeks”.
